The target in data set [1] is T1, trypanothione reductase from Trypanosoma cruzi (TcTR) (Trypanosoma cruzi, UniProt P28593). Briefly: Kinetic parameters of substrates with recombinant trypanothione reductase.
Experimental: The TcTR concentration is determined by measuring the number of subunits containing FAD at 461 nm (ε=11.3 mM^−1×cm^−1); the enzymatic activity is tested as specified in (28). One TR unit corresponds to 1 μmol of T(S)2 reduced per minute at 25° C. in a buffer A (20 mM Hepes, pH 7.25 containing 1 mM EDTA and 0.15 M KCl).
The enzyme stock solutions used for the kinetic determinations are pure (verification in SDS-PAGE) and have a specific activity of 137 U/mg in the T(S)2 reduction test performed in the presence of 500 μM NADPH and 518 μM T(S)2 in a buffer A.
All the kinetic studies are carried out in the same buffer at 25° C., in the presence of 200 μM of NADPH.
All the tests were carried out at 25° C. in 20 mM HEPES, 1 Mm EDTA, 150 mM KCl, at pH 7.25 (buffer A) and in the presence of 0.2 mM NADPH.
Data set [2] concerns the target T2, human thioredoxin reductase (hTrxR) (Homo sapiens, UniProt Q16881).
T2 construct: U of native hTrxR; from tissue; host or cells: human placenta
T2 sequence (Q16881 151-649 limits assumed): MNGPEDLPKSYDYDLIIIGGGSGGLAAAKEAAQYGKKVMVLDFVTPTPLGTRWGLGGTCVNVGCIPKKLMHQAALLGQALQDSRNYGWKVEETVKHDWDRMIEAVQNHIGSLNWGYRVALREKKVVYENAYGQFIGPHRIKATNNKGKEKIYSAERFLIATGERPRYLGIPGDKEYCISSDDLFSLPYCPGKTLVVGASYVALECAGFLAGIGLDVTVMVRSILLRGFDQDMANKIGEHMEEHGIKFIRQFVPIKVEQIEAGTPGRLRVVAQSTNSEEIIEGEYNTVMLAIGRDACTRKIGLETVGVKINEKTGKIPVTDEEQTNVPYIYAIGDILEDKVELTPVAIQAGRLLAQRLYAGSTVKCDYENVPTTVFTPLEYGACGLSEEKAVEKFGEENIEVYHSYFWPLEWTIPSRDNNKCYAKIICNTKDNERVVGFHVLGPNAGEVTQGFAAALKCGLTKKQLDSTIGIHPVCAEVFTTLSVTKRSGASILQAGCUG
Briefly: Kinetic parameters of substrates with native hTrxR (placenta). It is filed as biochemical. To be noted: substrate of native hTrxR (placenta), 25° C., buffer A pH 7.25, 0.2 mM NADPH. The protocol: The human thioredoxin reductase (hTrxR) is purified from placenta as specified in J. E. Oblong et al., Biochemistry, 1993, 32, 7271-7277.
The enzyme is added to a reaction mixture comprising 100 mM potassium phosphate, 2 mM EDTA, pH 7.4 and 3 mM DTNB; after the addition of 200 μM NADPH, the increase in the absorbence is measured at 412 nm and at 25° C. Using the DTNB test, one TrxR unit is defined as the NADPH-dependent production of […] of 5-thio-2-nitrobenzoate (ε412 nm=13.6 mM^−1.cm^−1). The TrxR concentrations are determined by measuring subunits containing FAD at 450 nm (ε=11.3 mM^−1.cm^−1).

Data set [3] has as its target T3, thioredoxin reductase from Plasmodium falciparum (PfTrxR) (Plasmodium falciparum, UniProt Q25861).
T3 construct: made in house; host or cells: E. coli SG5 (glutathione reductase deficient)
T3 sequence (Q25861 1-541): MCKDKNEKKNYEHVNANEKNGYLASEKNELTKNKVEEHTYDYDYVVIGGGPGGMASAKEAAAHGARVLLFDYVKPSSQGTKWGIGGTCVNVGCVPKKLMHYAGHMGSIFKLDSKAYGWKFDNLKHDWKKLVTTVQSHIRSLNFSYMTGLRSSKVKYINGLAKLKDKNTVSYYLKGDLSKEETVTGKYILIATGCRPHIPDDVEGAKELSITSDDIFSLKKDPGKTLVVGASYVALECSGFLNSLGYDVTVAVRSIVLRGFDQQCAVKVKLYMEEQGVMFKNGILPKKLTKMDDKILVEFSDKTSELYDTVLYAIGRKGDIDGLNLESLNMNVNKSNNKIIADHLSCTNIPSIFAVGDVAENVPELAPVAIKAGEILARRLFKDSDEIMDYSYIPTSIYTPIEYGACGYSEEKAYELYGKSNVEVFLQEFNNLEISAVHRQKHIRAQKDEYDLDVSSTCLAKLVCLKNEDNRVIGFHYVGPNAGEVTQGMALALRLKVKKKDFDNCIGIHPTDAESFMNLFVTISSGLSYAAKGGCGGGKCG
In words: Kinetic parameters of substrates with recombinant PfTrxR. To be noted: substrate of recombinant PfTrxR; 25° C., buffer A pH 7.25, 0.2 mM NADPH. Format: biochemical. The method, then: […] Using the DTNB test, one TrxR unit is defined as the NADPH-dependent production of […] of 5-thio-2-nitrobenzoate (ε412 nm=13.6 mM^−1.cm^−1). The TrxR concentrations are determined by measuring subunits containing FAD at 450 nm (ε=11.3 mM^−1.cm^−1).

For data set [4], the target named is T1, trypanothione reductase from Trypanosoma cruzi (TcTR). More on the design: made in house; host or cells: Escherichia coli SG5 carrying pIBITczTR. To be noted: cited from earlier work.
The target in data set [5] is T2, human thioredoxin reductase (hTrxR). To be noted: substrate of native hTrxR (placenta), cited from earlier work; for Km: references [29], [38].
Data set [6] addresses T3, thioredoxin reductase from Plasmodium falciparum (PfTrxR). To be noted: cited from earlier work.
Data set [7] concerns the target T4, Native hTrxR (lung adenocarcinoma cells) (Homo sapiens, UniProt Q16881).
T4 construct: host or cells: human lung adenocarcinoma cells (endogenous enzyme, purified)
T4 sequence (Q16881 151-649 limits assumed): T2 sequence (Q16881 151-649 limits assumed)
Conditions: substrate of native hTrxR (lung adenocarcinoma cells); reference [22]; cited from earlier work.

[8] abbreviates: substrate of recombinant PfTrxR, reference [26].
Where [9] appears, read: substrate of recombinant TcTR, reference [1].

Where two headings read alike, the source gives them in different places.

T1 sequence (P28593 whole entry): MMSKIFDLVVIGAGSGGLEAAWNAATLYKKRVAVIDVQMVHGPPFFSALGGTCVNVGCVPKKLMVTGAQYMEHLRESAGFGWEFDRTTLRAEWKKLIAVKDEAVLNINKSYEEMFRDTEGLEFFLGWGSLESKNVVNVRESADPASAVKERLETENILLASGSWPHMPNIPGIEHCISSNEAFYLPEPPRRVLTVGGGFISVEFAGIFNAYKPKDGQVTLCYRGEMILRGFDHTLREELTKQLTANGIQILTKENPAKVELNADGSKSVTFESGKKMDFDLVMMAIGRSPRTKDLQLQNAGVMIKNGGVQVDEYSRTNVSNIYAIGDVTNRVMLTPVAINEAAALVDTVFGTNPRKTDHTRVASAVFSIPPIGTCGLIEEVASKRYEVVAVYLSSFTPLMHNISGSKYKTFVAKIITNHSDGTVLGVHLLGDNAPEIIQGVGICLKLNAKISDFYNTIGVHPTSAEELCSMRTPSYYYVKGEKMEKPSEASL

`CN(C)CCCNC(=O)c1cc(SSc2ccc([N+](=O)[O-])c(C(=O)NCCCN(C)C)c2)ccc1[N+](=O)[O-]` [Compound 1]: the “reduction of Km compared with trypanothione disulphide” value in data set [1] (substrate for TR) turned out to be 30%. Also, the Michaelis-Menten constant (Km) in data set [2] came to 7 µM.
On to `CN1CCN(C(=O)c2cc(SSc3ccc([N+](=O)[O-])c(C(=O)N4CCN(C)CC4)c3)ccc2[N+](=O)[O-])CC1` [Compound 3], for which the “suitable as substrate (words spread over the Km, Kcat and Kcat/Km cells)” value in data set [1] (recombinant TcTR, 25° C., buffer A, 0.2 mM NADPH) is reported as “Not”. For the same compound, the values for the Kcat in data set [2] and in data set [3] were 38 s⁻¹ and 6 s⁻¹, respectively. The Michaelis constant (Km) in data set [2] (read-out: Km) was 10 µM.
`O=C(O)c1cc(SSc2ccc([N+](=O)[O-])c(C(=O)O)c2)ccc1[N+](=O)[O-]` [DTNB, 5,5′-dithiobis(2-nitrobenzoic) acid]: the “suitable as substrate (words spread over the Km, Kcat and Kcat/Km cells)” value in data set [4] (recombinant TcTR, reference [13]) was “Not”. The Kcat in data set [5] (reference [38]) is 67 s⁻¹; in data set [6] (setting [8]), 7 s⁻¹. Moreover, the Km is 400 µM in data set [5]; about 1000 µM in data set [6] (substrate of PfTrxR, stated in text); 1090 µM in data set [6] (setting [8]).
In the case of `N[C@@H](CCC(=O)N[C@H]1CSSC[C@H](NC(=O)CC[C@H](N)C(=O)O)C(=O)NCC(=O)NCCCNCCCCNC(=O)CNC1=O)C(=O)O` [TS2, oxidized N^1, N^8-bis(glutathionyl)-spermidine], in data set [4] (setting [9]), the Kcat is 240 s⁻¹ and the Michaelis-Menten constant (Km) was 45 µM.
As for “E. coli Trx: thioredoxin (Trx) of E. coli, substrate of thioredoxin reductase”, the Km in data set [5] is 20 µM; in data set [6] (setting [8]), 66 µM; in data set [7], 34 µM. Besides, the Kcat in data set [6] (setting [8]) was over 5 s⁻¹; in data set [7], 5.6 s⁻¹.

What is called Km is the concentration of substrate that gives half-maximal velocity.

(Values after patent US20030175848A1, “Substituted dithiobisnitrobenzenes and their applications” (Institut Pasteur De Lille, priority 1998, published 2003).)
